{"source": "patent US10004683B2", "about": "“Antimicrobial formulations” (Common Pharma, Inc., priority 2015, dated 2018)", "system": "New Zealand White Rabbits", "assay": "Dermal irritation test, ISO 10993-10:2010", "details": "rabbits inspected at 1, 24, 48 and 72 hours; scale 0 to 0.4 Negligible, 0.5 to 1.9 Slight, 2 to 4.9 Moderate, 5 to 8 Severe", "protocol": "The test was performed according to ISO 10993-10:2010. The test sample was 2% Noveon and 2% boric acid in water. A placebo was also tested which was only 2% Noveon in water. All testing was under GLP conditions. A negative control was used which was 0.9% Sodium Chloride for Injection, USP and a positive control was used which was 20% W/V of sodium dodecyl sulfate (SDS) in water.\nThe test animals were inspected at times 1, 24, 48 and 72 hours.", "data": [{"smiles": "CCCCCCCCCCCCOS(=O)(=O)[O-].[Na+]", "note": "[positive control, sodium dodecyl sulfate]", "values": [{"measurement": "dermal irritation observational rankings", "result": "2-4"}]}]}
